Source: PMC6881481, “Integrative Multi-Kinase Approach for the Identification of Potent Antiplasmodial Hits” (Frontiers in Chemistry, 2019)
Like-named read-outs stand apart in the source and are kept apart here.

Columns and labels:
P. falciparum CDPK1 = test system: P. falciparum CDPK1; set-up: method as in ref Crowther et al., 2016; National Center for Biotechnology Information, 2016a; settings: query of shape-based model, ref Crowther et al., 2016, National Center for Biotechnology Information, 2016a; cited from earlier work
[1] = test system: P. falciparum 3D7 (sensitive) strain, asexual blood stage; assay: Plasmodium growth inhibition by SYBR Green I, 3D7 strain; format: cell-based
Description: (§1) Parasite cultures (3D7 and Dd2 strains) were maintained in O^+ human erythrocytes in RPMI 1640 medium supplemented with 0.05 mg/mL gentamycin, 38.4 mM HEPES, 0.2% sodium bicarbonate, and 10% O^+ human serum as described before (Trager and Jensen, [1976]). To achieve a synchronic culture in the ring stage, two consecutive treatments at 48 h intervals with a 5% solution of D-sorbitol were done (Lambros and Vanderberg, [1979]).
(§2) Synchronized ring-stage (> 90%) infected erythrocytes were dispensed in duplicate into 96-well plates (0.5% parasitemia, 1% hematocrit) and incubated in dose response format with test compounds for 72 h. Chloroquine was used as an antimalarial control and uninfected erythrocytes as negative control. Then, in vitro susceptibility of parasite to tested drug was measured by SYBR Green (Hartwig et al., [2013]). Following incubation, the plates were frozen and thawed, and 100 μL of the culture were transferred to a new black 96-well plate containing 100 μL of lysis buffer (20 mM Tris, 5 mM EDTA, 0.008% wt/vol saponin, 0.08% vol/vol Triton X-100, and 0.4 μL/mL of SYBR Green). After 1 h, the fluorescence was measured at 490 nm excitation and 540 nm emission (CLARIOstar, Labtech BMG). […] The EC50 was calculated by plotting the Log doses vs. Inhibition (expressed as a percentage relative to the control) in Prism 6 (GraphPad Software Inc.). Each test was performed at least three independent experiments.

[2] = test system: P. berghei Ookluc line ookinete formation; assay: Inhibition of P. berghei sexual stage progression (ookinete conversion, nLuc); format: cell-based; settings: Plasmodium berghei, 24 h at 21°C, mean ± SD
Description: Balb/c mice were infected intraperitoneally with the P. berghei Ookluc line (Calit et al., [2018]). Four to five days after infection, the infected blood was collected by cardiac puncture and 4 μL were seeded to a volume of 80 μL of ookinete medium (Blagborough et al., [2013]), at 21°C, containing 10 μM of compounds or DMSO vehicle control. After 24h incubation at 21°C, the nLuc substrate (Nano-Glo, Promega) was added to each well 1:1 (v:v) and incubated for 5 min at 37°C. The luciferase activity was measured using a plate luminometer SpectraMax i3; Molecular Devices and the % of conversion inhibition were calculated relative to the luciferase activity in the control assays. This assay was approved by the Ethics Committee (protocol number 132/2014-CEUA) of the Institute of Biomedical Sciences—University of São Paulo.

[3] = test system: P. falciparum Dd2 (multi-drug-resistant) strain, asexual blood stage; assay: Plasmodium growth inhibition by SYBR Green I, Dd2 strain; format: cell-based; settings: read-out: EC50 Dd2
Description: as §1, §2

[4] = Cytotoxicity assay (MTT reduction), HEPG2 cells; format: cell-based, human; settings: human, HEPG2 cells (human hepatoma); HEPG2 cells, 72 h, mean ± SD
Description: (§3) The cytotoxicity was evaluated using two different lineages of mammalian cells: fibroblast-like cell lines derived from monkey kidney tissue (COS7 cells) and human hepatoma cell line (HEPG2). The cells were grown in 75 cm^2 flasks containing DMEM medium supplemented with 10% fetal bovine serum and 0.05 mg/mL gentamicin under a 5% CO2 atmosphere at 37°C. After harvest of cells, 100 μL aliquots were distributed in 96-well plates (1 x 10^4 cells per well) and incubated until adhesion (~12 h). The compounds at various concentrations (100−0.048 μM) were placed in the wells in duplicate and incubated for 72 h. The cell viability analysis were done by the MMT reduction method (3-[4,5-dimethyl-thiazol-2-yl]-2,5-diphenyltetrazolium […]), after the incubation period (Mosmann, [1983]). The optical density was determined at 570 nm (CLARIOstar, Labtech BMG) and the 50% cytotoxicity concentrations (CC50) were expressed as the percent viability relative to the control (untreated cells). The selectivity index of the compounds was determined through the ratio of the CC50 of both cytotoxicity results (COS7 and HEPG2 cells) and EC50 3D7, separately. Experiments were performed at least three times.

HEPG2 cells = assay: Cytotoxicity assay (MTT reduction), HEPG2 cells; format: cell-based, human; settings: CC50 HEPG2 / EC50 3D7
Description: as §3

COS7 cells = assay: Cytotoxicity assay (MTT reduction), COS7 cells; format: cell-based, monkey; settings: for SI* (selectivity index between CC50 COS7 and EC50 3D7 strain): CC50 COS7 / EC50 3D7; for selectivity indices: mammalian cells vs 3D7 (abstract)
Description: as §3

[5] = Cytotoxicity assay (MTT reduction), COS7 cells; format: cell-based, monkey; settings: monkey, COS7 cells (fibroblast-like, monkey kidney); COS7 cells, 72 h, mean ± SD
Description: as §3

P. falciparum CDPK4 = test system: P. falciparum CDPK4; set-up: method as in ref Crowther et al., 2016; National Center for Biotechnology Information, 2016b; settings: query of shape-based model, ref Crowther et al., 2016, National Center for Biotechnology Information, 2016b; cited from earlier work
P. falciparum PK6 = test system: P. falciparum PK6; set-up: method as in ref Crowther et al., 2016; National Center for Biotechnology Information, 2016c; settings: query of shape-based model, ref Crowther et al., 2016, National Center for Biotechnology Information, 2016c; cited from earlier work
[6] = 3D7 strain, 72 h, mean ± SD of three independent assays, read-out: EC50 3D7
[7] = Dd2 strain, 72 h, mean ± SD of three independent assays
[8] = 3D7, both sensitive and multi-drug resistant P. falciparum strains (abstract), read-out: EC50 (antiplasmodial activity)
[9] = 3D7 / DD2, both 3D7 and Dd2 strains, summary bound, read-out: EC50 (3D7 and Dd2 strains)

Structure (SMILES) | EC50 [1, 6] [µM] | inhibition at 10 µM [2] [%] | EC50 [3, 7] [µM] | CC50 at 72 h [4] [µM] | SI** (selectivity index between CC50 HEPG2 and EC50 3D7 strain) (HEPG2 cells) | SI* (selectivity index between CC50 COS7 and EC50 3D7 strain) (COS7 cells) | CC50 at 72 h [5] [µM] | also measured
O=C(NCCCN1CCCCC1)c1ccc(Nc2nccc(Nc3ccc(Oc4ccccc4)cc3)n2)cc1 [SID 307076176] |  |  |  |  |  |  |  | IC50 (P. falciparum CDPK1): 0.094 µM
O=C(NCCO)c1cccc(Nc2nc(-c3ccccc3)c3cc(Cl)ccc3n2)c1 [LabMol-175] | > 5 | 12.9 ± 22.3 |  |  |  |  |  | 
CC(Nc1nc(N2CCNCC2)nc2ccccc12)c1ccccc1 (stereo not drawn) [LabMol-176] | 1.15 ± 0.26 | 20.5 ± 19.4 | 1.71 ± 0.4 | 5.63 ± 1.51 | 4.90 | 30.33 | 34.9 ± 4.06 | 
COc1ccc(Nc2nc(Nc3ccc([N+](=O)[O-])cc3)nc(OC)n2)cc1 [LabMol-169] | 8.77 ± 2.2 | 8.58 ± 7.62 | 3.4 ± 1.68 | 19.9 ± 2.26 | 2.27 | 5.09 | 44.6 ± 3.73 | 
c1ccc2c(NCC3CCCO3)nc(Nc3ccc4c(c3)OCO4)nc2c1 (stereo not drawn) [LabMol-181] | 0.39 ± 0.06 | 51.8 ± 23.2 | 0.4 ± 0.1 | 6.13 ± 2.05 | 15.72 | 46.90 | 18.3 ± 1.92 | EC50 [1, 8]: ≤ 0.7 µM; EC50 [1, 9]: < 1 µM; selectivity indices (COS7 cells): > 15 folds
CCn1c(-c2nonc2N)nc2c(-c3cccc(NC(=O)Nc4cccc(C(F)(F)F)c4)c3)ncc(OCCCN)c21 [SID 307073749] |  |  |  |  |  |  |  | IC50 (P. falciparum CDPK1): 0.015 µM
Cc1[nH]c(/C=C2\C(=O)Nc3ccc(S(=O)(=O)Cc4c(Cl)cccc4Cl)cc32)c(C)c1C(=O)N1CCC[C@@H]1CN1CCCC1 [SID 307068815] |  |  |  |  |  |  |  | IC50 (P. falciparum CDPK4): 0.021 µM
CC(C)(CN)c1nc(-c2ccc(Cl)c(O)c2)c(-c2ccnc(N)n2)[nH]1 [SID 307078537] |  |  |  |  |  |  |  | IC50 (P. falciparum CDPK1): 0.007 µM
CNC(=O)c1ccccc1Nc1nc(Nc2ccc(N3CCOCC3)cc2)ncc1Cl [SID 307071719] |  |  |  |  |  |  |  | IC50 (P. falciparum PK6): 0.042 µM
CC(O)c1cccc(Nc2nc(NCc3ccco3)c3ccccc3n2)c1 (stereo not drawn) [LabMol-172] | 0.43 ± 0.08 | 8.59 ± 13 | 0.48 ± 0.17 | 10.2 ± 5.53 | 23.74 | 28.16 | 12.1 ± 1.44 | EC50 [1, 8]: ≤ 0.7 µM; EC50 [1, 9]: < 1 µM; selectivity indices (COS7 cells): > 15 folds
CC(O)c1cccc(Nc2nc(NCCO)c3ccccc3n2)c1 (stereo not drawn) [LabMol-171] | 0.35 ± 0.08 | 70 ± 22.2 | 0.7 ± 0.41 | 19.3 ± 3.69 | 55.17 | 138.26 | 48.4 ± 14 | EC50 [1, 8]: ≤ 0.7 µM; EC50 [1, 9]: < 1 µM; selectivity indices (COS7 cells): > 15 folds
CN1CCN(CCC2CCCCN2Cc2ccnc3ccccc23)CC1 (stereo not drawn) [LabMol-173] | > 5 | 0 |  |  |  |  |  | 
COc1ccc(Nc2nc(C)c(N)c(Nc3ccc(OC)cc3)n2)cc1 [LabMol-170] | 1.14 ± 0.2 | 11.2 ± 19.5 | 2.02 ± 0.36 | 5.43 ± 2.39 | 4.76 | 6.66 | 7.59 ± 4.09 | 
CCN(CC)CCCC(C)Nc1ccnc2cc(Cl)ccc12 (stereo not drawn) [Chloroquine, reference compound] |  |  |  |  |  |  |  | EC50 ([3]; DD2, 72 h): 0.15 ± 0.04 µM; EC50 ([1]; 3D7, 72 h, read-out: EC50 3D7): 0.02 ± 0.01 µM
Cc1ccc(-c2nc(NCc3cnc(C)cn3)ncc2-c2ccc(N)nc2)cc1 [LabMol-177] | > 5 | 8.76 ± 15.2 |  |  |  |  |  | 
Cc1cc(NCCCN2CCN(C)CC2)nc(-c2ccccc2O)n1 [LabMol-174] | > 5 | 21.4 ± 36.7 |  |  |  |  |  | 
